The results in this text go back to US6310095A, “Inhibitors of protein isoprenyl transferases” (University of Pittsburgh, priority 1998, dated 2001).

Structures can show the parent of a compound that is named as a salt.

For the first test, the target named is T1, protein farnesyltransferase (Rattus norvegicus, UniProt Q02293+Q04631).
T1 construct: Rat brain protein farnesyltransferase activity is measured; from tissue; host or cells: rat brain; purified according to Reiss et al., Cell 62:81-88 (1990), steps one through three
The test is described as follows: in vitro inhibition of protein farnesyltransferase (scintillation proximity assay, biotin-K Ras B fragment). In kind it is biochemical. Particulars: at 1 × 10^-5 M. An excerpt: The ability of the compounds of the invention to inhibit protein farnesyltransferase or protein geranylgeranyltransferase can be measured according to the method of Moores, et al., J. Biol. Chem. 266: 14603 (1991) or the method of Vogt, et al., J. Biol. Chem. 270:660-664 (1995). In addition, procedures for determination of the inhibition of farnesylation of the oncogene protein Ras are described by Goldstein, et al., J. Biol. Chem., 266:15575-15578 (1991) and by Singh in U.S. Pat. No. 5,245,061.
In addition, in vitro inhibition of protein farnesyltransferase may be measured by the following procedure. Rat brain protein farnesyltransferase activity is measured using an Amersham Life Science commercial scintillation proximity assay kit and substituting a biotin-K Ras B fragment (biotin-[…]CO2 H), 0.1 mM final concentration, for the biotin-lamin substrate provided by Amersham. The enzyme is purified according to Reiss, Y., et al., Cell, 62: 81-88 (1990), utilizing steps one through three.
The % inhibition of protein farnesyltransferase was determined for representative compounds of the invention.
By inhibition is commonly meant the relative decrease from the control value, in per cent. In turn, `CSCC[C@H](NC(=O)c1ccc(CNc2ccc3c(c2)Cc2ccccc2-3)cc1-c1ccccc1)C(=O)O` [Example 706] had an inhibition at 10 µM of 53%. On to `CSCC[C@H](NC(=O)c1ccc(CNc2cccc(Oc3ccccc3)c2)cc1-c1ccccc1)C(=O)O` [Example 686], for which testing at 10 µM gave an inhibition of 48%. For the compound `CSCC[C@H](NC(=O)c1ccc(CNc2ccc(Oc3ccccc3)cc2)cc1-c1ccccc1)C(=O)O` [Example 701], at 10 µM the inhibition was 64%.

In turn, `CSCC[C@H](NC(=O)c1ccc(CNC(CO)Cc2ccccc2)cc1-c1ccccc1)C(=O)O` (some centres unmarked) [Example 714] showed an inhibition at 10 µM of 56%.

The test is the same for the next values; noted with them: at 1 × 10^-6 M.
Take `CSCC[C@H](NC(=O)c1ccc(OCCOC2CCCCC2)cc1-c1ccccc1C)C(=O)[O-].[Li+]` [Example 565]: the “% inhibition of farnesyltransferase” value is given as 94%. `CSCC[C@H](NC(=O)c1ccc(CC(Cc2ccccc2)c2ccccc2)cc1-c1ccccc1C)C(=O)[O-].[Li+]` (some centres unmarked) [Example 572]: the “% inhibition of farnesyltransferase” value is on record as 91%. As to `CSCC[C@H](NC(=O)c1ccc(COCc2ccoc2)cc1-c1ccccc1C)C(=O)O` [Example 530], the “% inhibition of farnesyltransferase” value turned out to be 94%.

Regarding `Cc1ccccc1-c1cc(CCc2ccccc2Oc2ccccc2)ccc1C(=O)N[C@@H](CC[S+](C)[O-])C(=O)O` (some centres unmarked) [Example 456], the “% inhibition of farnesyltransferase” value was found to be 81%. As for `CSCC[C@H](NC(=O)c1ccc(COCc2ccc(CN(C)C)o2)cc1-c1ccccc1C)C(=O)O` [Example 435], the “% inhibition of farnesyltransferase” value was 96%. As to `CSCC[C@H](NC(=O)c1ccc(CN2C(=O)OC[C@@H]2CC2CCCCC2)cc1-c1ccccc1C)C(=O)O` [Example 349], the “% inhibition of farnesyltransferase” value is given as 99%.

Regarding `CSCC[C@H](NC(=O)c1cc(Cc2ccccc2)c(COCc2ccccc2)cc1-c1ccccc1C)C(=O)O` [Example 923], the “% inhibition of farnesyltransferase” value was determined as 78%. For the compound `CSCC[C@H](NC(=O)c1ccc(OC/C=C(\C)CC/C=C(\C)CCC=C(C)C)cc1-c1ccccc1C)C(=O)O` [Example 547], the “% inhibition of farnesyltransferase” value is listed as 91%. Consider `CSCC[C@H](NC(=O)c1ccc(C=Cc2ccccc2Cc2ccccc2)cc1-c1ccccc1C)C(=O)[O-].[Li+]` [Example 457], for which the “% inhibition of farnesyltransferase” value was found to be 92%. For the compound `CSCC[C@H](NC(=O)c1ccc(CSCc2ccccc2C)cc1-c1ccccc1C)C(=O)[O-].[Li+]` [Example 557], the “% inhibition of farnesyltransferase” value amounted to 93%. The same measure, in the same setting: the result for `CSCC[C@H](NC(=O)c1ccc(/C=C/CCc2ccccc2)cc1-c1ccccc1C)C(=O)O` [Example 472] reads 97%; that for `CSCC[C@H](NC(=O)c1ccc(/C=C/c2cnc(Oc3ccccc3)cn2)cc1-c1ccccc1C)C(=O)O` [Example 812], 94%.

As to `CSCC[C@H](NC(=O)c1ccc(CN2CCC(OCc3ccccc3)C2)cc1-c1ccccc1C)C(=O)O` (some centres unmarked) [Example 988], the “% inhibition of farnesyltransferase” value was 92%.

Still in this test, the particulars now being: at 1 × 10^-6 M; read-out: % inhibition of farnesyltransferase.
Turning to `CSCC[C@H](NC(=O)c1ccc(CNc2ccc(CCO)cc2)cc1-c1ccccc1)C(=O)O` [Example 694], the inhibition at 1 µM stood at 45%. In the case of `CSCC[C@H](NC(=O)c1ccc(CNCc2ccc(N)cc2)cc1-c1ccccc1)C(=O)O` [Example 653], the inhibition at 1 µM came to 62%. As for `CSCC[C@H](NC(=O)c1ccc(CNc2ccccc2C(N)=O)cc1-c1ccccc1)C(=O)O` [Example 644], the inhibition at 1 µM stood at 54%. As for `CSCC[C@H](NC(=O)c1ccc(CN(C(CC2CCCCC2)CC2CCCCC2)S(=O)(=O)c2ccccc2)cc1-c1ccccc1C)C(=O)O` [Example 911, N-[4-(N-Benzenesulfoyl-N-(1,3-Dicyclohexylpropan-2-yl)aminomethyl)-2-(2-methylphenyl)-benzoyl]methionine], the inhibition at 1 µM is 65%. On to `CSCC[C@H](NC(=O)c1ccc(NC(=O)[C@@H]2CSCN2)cc1-c1ccccc1)C(=O)O` [Example 165, [4-((R)-thiazolidin-4-ylcarbonyl)amino-2-phenylbenzoyl]methionine], for which the inhibition at 1 µM came to 74%. For the compound `CSCC[C@H](NC(=O)c1ccc(NCC2CNCCN2)cc1-c1ccccc1)C(=O)O` (some centres unmarked) [Example 286, [4-(2-piperazinylmethylamino)-2-phenylbenzoyl]methionine], the inhibition at 1 µM is 84%. Take `CSCC[C@H](NC(=O)c1ccc(CNc2ccc(N3CCCCC3)cc2)cc1-c1ccccc1C)C(=O)O` [Example 862, N-[4-N-(4-piperidin-1-ylphenyl)aminomethyl-2-(2-methylphenyl)benzoyl]methionine]: the inhibition at 1 µM is 95%. Take `CSCC[C@H](NC(=O)c1ccc(CN(C)CCc2ccccc2)cc1-c1ccccc1C)C(=O)O` [Example 516, N-[4-N-methyl-N-(2-phenyethyl)aminomethyl-2-(2-methylphenyl)benzoyl]methionine lithium salt]: the inhibition at 1 µM was found to be 95%. Still for that read-out and setting: the result for `CSCC[C@H](NC(=O)c1ccc(CN(CCC2CCCCC2)C(=O)N(C)C)cc1-c1ccccc1C)C(=O)O` [Example 610, N-[4-(N-(N,N-dimethylaminocarbonyl)-N-(2-cyclohexylethyl)aminomethyl)-2-(2-methylphenyl)benzoyl]methionine] reads 94%; that for `CSCC[C@H](NC(=O)c1ccc(NC(=O)Cc2nccs2)cc1-c1ccccc1)C(=O)O` [Example 163, [4-(thiazol-2-ylmethylcarbonyl)amino-2-phenylbenzoyl]methionine], 18%. For the compound `CSCC[C@H](NC(=O)c1ccc(CNCC(O)CO)cc1-c1ccccc1)C(=O)O` (some centres unmarked) [Example 632], the inhibition at 1 µM stood at 43%.

For the compound `CSCC[C@H](NC(=O)c1ccc(CNc2ccc(N3CCCCC3)cc2)cc1-c1ccccc1)C(=O)O` [Example 697], the inhibition at 1 µM was determined as 39%.

Still in this test, the particulars now being: at 1 × 10^-7 M.
Turning to `CSCC[C@H](NC(=O)c1ccc(COCc2ccc(C)cc2)cc1-c1ccccc1C)C(=O)[O-].[Li+]` [Example 579], the “% inhibition of farnesyltransferase” value is reported as 92%. With `CSCC[C@H](NC(=O)c1ccc(COCCc2cccc3ccccc23)cc1-c1ccccc1C)C(=O)[O-].[Li+]` [Example 592], the “% inhibition of farnesyltransferase” value is 93%. Still for that read-out and setting: for `CSCC[C@H](NC(=O)c1ccc(COCc2cnc(-c3ccc(Cl)cc3)o2)cc1-c1ccccc1C)C(=O)[O-].[Li+]` [Example 894] the value was 89%; for `CSCC[C@H](NC(=O)c1ccc(COc2cccc3ccccc23)cc1-c1ccccc1C)C(=O)O` [Example 574], 81%; for `CSCC[C@H](NC(=O)c1ccc(CSc2ccc3ccccc3c2)cc1-c1ccccc1C)C(=O)O` [Example 551], 93%. For the compound `CSCC[C@H](NC(=O)c1ccc(COCCc2ccc(-c3ccc(F)cc3)o2)cc1-c1ccccc1C)C(=O)[O-].[Li+]` [Example 535], the “% inhibition of farnesyltransferase” value amounted to 89%. As for `CSCC[C@H](NC(=O)c1ccc(CCc2cccc(Oc3ccccc3)c2)cc1-c1ccccc1C)C(=O)[O-].[Li+]` [Example 459], the “% inhibition of farnesyltransferase” value is given as 92%. On to `CSCC[C@H](NC(=O)c1ccc(/C=C/c2ccc(Oc3ccccc3[N+](=O)[O-])cc2)cc1-c1ccccc1C)C(=O)O` [Example 856], for which the “% inhibition of farnesyltransferase” value came out at 97%. For `CSCC[C@H](NC(=O)c1ccc(COCc2cncs2)cc1-c1ccccc1C)C(=O)[O-].[Li+]` [Example 539], the “% inhibition of farnesyltransferase” value came to 89%.

The same test, now with this note: at 1 × 10^-7 M; read-out: % inhibition of farnesyltransferase.
For the compound `CSCC[C@H](NC(=O)c1ccc(CN(CCC23CC4CC(CC(C4)C2)C3)c2ccccc2)cc1-c1ccccc1C)C(=O)O` [Example 511], the inhibition at 0.1 µM worked out at 82%.

The same test, now with this note: at 1 × 10^-8 M.
Take `CSCC[C@H](NC(=O)c1ccc(COCc2cnc(-c3ccccc3Cl)o2)cc1-c1ccccc1C)C(=O)[O-].[Li+]` [Example 892]: the “% inhibition of farnesyltransferase” value came out at 59%. With `CSCC[C@H](NC(=O)c1ccc(CO[C@@H](CC2CCCCC2)CN2CCOCC2)cc1-c1ccccc1C)C(=O)O` [Example 885], the “% inhibition of farnesyltransferase” value is given as 95%. The same measure, in the same setting: the result for `CCCCC(OCc1ccc(C(=O)N[C@@H](CCSC)C(=O)[O-])c(-c2ccccc2C)c1)c1ccc(-c2ccc(Cl)cc2)o1.[Li+]` (some centres unmarked) [Example 826] reads 92%; that for `CSCC[C@H](NC(=O)c1ccc(CO[C@H](CSC(C)(C)C)CC2CCCCC2)cc1-c1ccccc1C)C(=O)O` [Example 883], 91%. In the case of `CSCC[C@H](NC(=O)c1ccc(COCCCC23CC4CC(CC(C4)C2)C3)cc1-c1ccccc1C)C(=O)[O-].[Li+]` [Example 599], the “% inhibition of farnesyltransferase” value worked out at 86%. Still for that read-out and setting: for `CSCC[C@H](NC(=O)c1ccc(CO[C@H](CSC)CC2CCCCC2)cc1-c1ccccc1C)C(=O)O` [Example 882] the value was 79%.

Staying with this test, now noted: at 1 × 10^-8 M; read-out: % inhibition of farnesyltransferase.
For the compound `CSCC[C@H](NC(=O)c1ccc(CN(Cc2ccccc2)c2cnccn2)cc1-c1ccccc1C)C(=O)O` [Example 517, N-[4-N-benzyl-N-pyrazin-2-ylaminomethyl-2-(2-methylphenyl)benzoyl]methionine lithium salt], the inhibition at 0.01 µM stood at 92%.

Staying with this test, now noted: read-out: % inhibition of farnesyltransferase.
For the compound `CSCC[C@H](NC(=O)c1ccc(CNC(CC2CCCCC2)C2CCCCC2)cc1-c1ccccc1C)C(=O)O` (some centres unmarked) [Example 616, N-[4-(1,2-dicyclohexylethylaminomethyl)-2-(2-methylphenyl)benzoyl]methionine Lithium Salt], the inhibition at 0.1 µM amounted to 95%.
